Assay results: paper PMC11531485, “Examining prestructured β-actin peptides as substrates of histidine methyltransferase SETD3” (Scientific Reports, 2024)
One block for each molecule: values may come before it. Positions of bridges follow the written chain, without caps; N, C: chain ends. Non-standard residues stand in square brackets, D forms with d. Residues, ends and D or L forms follow the SMILES beside them. No end group written: not given here. Orn = NCCC[C@H](N)C(=O)O

What was measured:
human SETD3 [1] = biological target: T1, human SETD3 (Homo sapiens, UniProt Q86TU7); assay: MALDI-TOF MS methylation kinetics assay (Michaelis-Menten, steady state); format: biochemical; conditions: 200 nM SETD3, 3.125-150 µM peptide, 100 µM SAM, pH 9.0, 37 °C; for Km / kcat: 25 mM Tris, 20 mM NaCl, MALDI-TOF MS, duplicate, mean ± SE, SEM
T1 construct: His6 (N); made in house; host or cells: E. coli BL21(DE3)
T1 sequence (Q86TU7 1-594): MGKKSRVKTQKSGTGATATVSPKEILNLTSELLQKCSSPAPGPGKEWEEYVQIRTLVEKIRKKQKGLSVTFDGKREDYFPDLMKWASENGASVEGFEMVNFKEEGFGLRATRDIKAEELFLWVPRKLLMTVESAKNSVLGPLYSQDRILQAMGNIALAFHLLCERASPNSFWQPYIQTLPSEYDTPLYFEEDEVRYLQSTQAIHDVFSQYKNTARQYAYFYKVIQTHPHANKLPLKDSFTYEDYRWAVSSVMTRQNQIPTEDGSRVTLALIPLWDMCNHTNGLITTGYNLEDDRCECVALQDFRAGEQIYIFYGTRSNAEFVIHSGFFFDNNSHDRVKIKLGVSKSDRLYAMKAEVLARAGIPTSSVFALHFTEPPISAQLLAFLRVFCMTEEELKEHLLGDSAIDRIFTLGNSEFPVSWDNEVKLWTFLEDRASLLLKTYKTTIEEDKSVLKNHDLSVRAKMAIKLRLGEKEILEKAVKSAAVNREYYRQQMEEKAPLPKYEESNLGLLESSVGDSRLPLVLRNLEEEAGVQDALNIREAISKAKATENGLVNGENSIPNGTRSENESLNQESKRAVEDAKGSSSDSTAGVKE
Protocol: (§1) Catalytic efficiencies were explored for SETD3-catalyzed methylation of linear βA peptides 1, 6, 8 and 10 (Fig. 5; Table 1). Kinetic parameters were determined using MALDI-TOF MS assays under steady-state conditions by incubation with saturating amounts of SAM (100 µM)[23]. Addition of SETD3 (200 nM) to varying concentrations of linear βA peptides (0–150 µM) in reaction buffer initiated the reaction, upon which the mixture was incubated at 37 °C and quenched at timepoints that guarantee v0-reaction rates for SETD3-catalyzed methylation.
(§2) Fig. 5 Michaelis–Menten kinetics of linear βA peptides at varying concentrations (3.125-150 µM) by SETD3 (200 nM) in presence of saturating amounts of SAM (100 µM) in reaction buffer (25 mM Tris, 20 mM NaCl, pH = 9.0) at 37 °C.
(§3) Kinetics evaluation was carried out with a MALDI-TOF MS assay under steady state conditions. βA peptides (3.125–150 µM) and SAM (100 µM) were dissolved in methylation buffer (25 mM Tris, 20 mM NaCl, pH = 9.0), upon which the reaction was initiated by addition of SETD3. Reactions were incubated at 37 °C and shaken at 750 rpm Eppendorf Thermomixer C for 30 min, upon which the reactions were quenched by addition of 10% TFA in MilliQ water (1:1). Reactions were aliquoted and mixed with α-cyano-4-hydroxycinnamic acid dissolved in MilliQ H2O and ACN (1:1, v/v) with 0.1% TFA. The aliquots were loaded onto a MTP 384 polished steel target for MALDI-TOF analysis using a UltrafleXtreme. Methylated product was quantified by determining the combined integrals of the various ionic species of the methylated product. Kinetic parameters were subsequently determined by plotting V0 values and actin peptide concentrations and fitting them to the Michaelis–Menten equation using GraphPad Prism software. Experiments were performed in duplicate and values are reported as mean [drawing 1] standard error (SE) (Figs. S3-S4).

human SETD3 [2] = biological target: T1, human SETD3; assay: MALDI-TOF MS enzymatic substrate scope assay (SETD3-catalyzed methylation of βA peptides); format: biochemical; conditions: 1 µM SETD3, 10 µM βA peptide, 100 µM SAM, 25 mM Tris, 20 mM NaCl, pH 9.0, 37 °C; for SETD3-catalyzed methylation after 3 h: N = 2
Protocol: We examined conformationally restrained βA peptides and linear controls as substrates for the recombinantly expressed human SETD3 employing MALDI-TOF MS to detect a characteristic + 14 Da mass increase upon methylation. Enzymatic reactions were evaluated using standard conditions (1 µM SETD3, 10 µM βA, 100 µM SAM) in methylation buffer (25 mM Tris, 20 mM NaCl, pH = 9.0 at 37 °C)[21]. The enzymatic reaction was quenched with 10% TFA in MilliQ water (1:1 v/v) at 1 h and 3 h before mass spectrometric analysis (Figs . 4 and S3-S4). […] Finally, azide-alkyne Cu^I-mediated Huisgen 1,3-dipolar cycloaddition yields peptide 11 that was poorly (14%) methylated by SETD3 after 3 h under standard conditions (Figs. 4L and S4L). […] Taken together, these findings illustrate an overall preference of human SETD3 for flexible βA peptides, which facilitates βA-H73 insertion into the active site. Introduction of flexible macrocycles results in an overall reduced methylation by SETD3, while bulky or rigidifying moieties present within the macrocycles render the βA peptides non-reactive to methylation by SETD3.
Fig. 4 MALDI-TOF MS data showing SETD3-catalyzed (1 µM) methylation of βA peptides (10 µM) in the presence of SAM (100 µM) in reaction buffer (25 mM Tris, 20 mM NaCl, pH = 9.0) after 3 h at 37 °C. (A) βA, (B) 1, (C) 2, (D) 3, (E) 4, (F) 5, (G) 6, (H) 7, (I) 8, (J) 9, (K) 10, (L) 11. Control reactions in the absence of SETD3 are shown in black, whereas SETD3-catalyzed reactions are shown in red.
SETD3 substrate scope experiments towards βA peptides were performed by incubation of βA peptides (10 µM) in methylation buffer (25 mM Tris, 20 mM NaCl, pH = 9.0) in the presence of SAM (100 µM) and SETD3 (1 µM) in a final volume of 50 µL for 1 and 3 h at 37 °C while shaking at 750 rpm in an Eppendorf Thermomixer C. The reaction was quenched by addition of 10% TFA in MilliQ H2O (1:1). The reactions were aliquoted and mixed with α-cyano-4-hydroxycinnamic acid dissolved in MilliQ H2O and ACN (1:1, v/v) with 0.1% TFA. The aliquots were loaded onto a MTP 384 polished steel target for MALDI-TOF analysis using a UltrafleXtreme and conversion to methylated product was monitored.

[3] = biological target: T2, human SETD3 histidine methyltransferase (human, UniProt Q86TU7 1-594)
T2 sequence (looked up): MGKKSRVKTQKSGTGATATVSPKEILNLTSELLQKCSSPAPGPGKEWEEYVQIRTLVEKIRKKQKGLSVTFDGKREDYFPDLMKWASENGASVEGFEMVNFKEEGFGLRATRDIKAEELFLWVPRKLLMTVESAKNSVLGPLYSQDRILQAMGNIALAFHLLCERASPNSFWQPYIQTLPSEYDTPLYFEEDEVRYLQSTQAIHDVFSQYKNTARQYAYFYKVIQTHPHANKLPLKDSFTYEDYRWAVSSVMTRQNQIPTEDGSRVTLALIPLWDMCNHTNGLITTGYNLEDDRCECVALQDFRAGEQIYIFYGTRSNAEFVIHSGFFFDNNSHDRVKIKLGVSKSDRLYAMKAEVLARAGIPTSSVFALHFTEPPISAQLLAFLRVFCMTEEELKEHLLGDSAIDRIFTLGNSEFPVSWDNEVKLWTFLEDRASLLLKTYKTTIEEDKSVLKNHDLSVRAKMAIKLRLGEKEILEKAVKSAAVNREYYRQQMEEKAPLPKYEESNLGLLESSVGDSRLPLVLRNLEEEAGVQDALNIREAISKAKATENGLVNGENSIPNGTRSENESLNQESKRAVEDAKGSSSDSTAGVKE

[4] = biological target: human SETD3 histidine methyltransferase (human) (UniProt Q86TU7)
[5] = substrate: CC[C@H](C)[C@H](NC(=O)CNC(=O)[C@H](Cc1c[nH]cn1)NC(=O)[C@H](CCC(=O)O)NC(=O)[C@@H](NC(=O)[C@@H]1CCCN1C(=O)[C@H](Cc1ccc(O)cc1)NC(=O)[C@H](CCCCN)NC(=O)[C@H](CC(C)C)NC(=O)[C@@H](N)[C@@H](C)O)[C@@H](C)CC)C(=O)N[C@H](C(=O)N[C@H](C(=O)N[C@@H](CC(N)=O)C(=O)N[C@@H](Cc1c[nH]c2ccccc12)C(=O)N[C@@H](CC(=O)O)C(=O)N[C@@H](CC(=O)O)C(N)=O)[C@@H](C)O)C(C)C; assay: MALDI-TOF MS methylation kinetics assay (Michaelis-Menten, steady state); format: biochemical, human; conditions: other: 200 nM SETD3, 3.125-150 µM peptide, 100 µM SAM, 25 mM Tris, 20 mM NaCl, pH 9.0, 37 °C, duplicate, mean ± SE
Protocol: as §1, §2, §3

Km (human SETD3 [1]): 45.2 ± 8.1 µM | kcat (human SETD3 [1]): 3.68 ± 0.267 s⁻¹ | kcat/Km (human SETD3 [1]): 81800 M⁻¹ s⁻¹ | SETD3-catalyzed methylation (conversion) within 1 h (human SETD3 [2]): completely methylated
Molecule: TLKYPIEHG[Orn]VTNWDD [compound 6, linear lactam control, βA-I75 substituted by Orn]

Molecule: CC[C@H](C)[C@H](NC(=O)[C@@H]1CCCN1C(=O)[C@H](Cc1ccc(O)cc1)NC(=O)[C@H](CCCCN)NC(=O)[C@H](CC(C)C)NC(=O)[C@@H](N)[C@@H](C)O)C(=O)N[C@H]1CCC(=O)NCCCC[C@@H](C(=O)N[C@H](C(=O)N[C@H](C(=O)N[C@@H](CC(N)=O)C(=O)N[C@@H](Cc2c[nH]c3ccccc23)C(=O)N[C@@H](CC(=O)O)C(=O)N[C@@H](CC(=O)O)C(N)=O)[C@@H](C)O)C(C)C)NC(=O)CNC(=O)[C@H](Cc2c[nH]cn2)NC1=O [compound 9] (H-TLKYPIEHGKVTNWDD-NH2; lactam 7-10)
SETD3-catalyzed methylation after 3 h (human SETD3 [2]): 25%

Km of SETD3-catalysed methylation, MALDI-TOF MS steady-state kinetics (200 nM SETD3, 100 µM SAM, pH 9.0, 37 °C) [3]: 45.2 µM | kcat of SETD3-catalysed methylation, MALDI-TOF MS steady-state kinetics (200 nM SETD3, 100 µM SAM, pH 9.0, 37 °C) [3]: 221 min^-1 | kcat/Km of SETD3-catalysed methylation, MALDI-TOF MS steady-state kinetics (200 nM SETD3, 100 µM SAM, pH 9.0, 37 °C) [3]: 4.91 µM^-1min^-1
Molecule: linear βA peptide 6 (Ile75 replaced by ornithine) (from UniProt P60709 66-81)

Molecule: linear βA peptide 8 (I75K) (from UniProt P60709 66-81)
Km of SETD3-catalysed methylation, MALDI-TOF MS steady-state kinetics (200 nM SETD3, 100 µM SAM, pH 9.0, 37 °C) [4]: 25.1 µM | kcat of SETD3-catalysed methylation, MALDI-TOF MS steady-state kinetics (200 nM SETD3, 100 µM SAM, pH 9.0, 37 °C) [4]: 246 min^-1 | kcat/Km of SETD3-catalysed methylation, MALDI-TOF MS steady-state kinetics (200 nM SETD3, 100 µM SAM, pH 9.0, 37 °C) [4]: 9.8 µM^-1min^-1

Molecule: TLKYPICHGCVTNWDD [compound 1, linear dicysteine βA66-81 control peptide]
Km (human SETD3 [1]): 75.7 ± 20 µM | kcat (human SETD3 [1]): 0.983 ± 0.125 s⁻¹ | kcat/Km (human SETD3 [1]): 13000 M⁻¹ s⁻¹ | SETD3-catalyzed methylation (conversion) within 1 h (human SETD3 [2]): full conversion

SETD3-catalyzed methylation after 3 h (human SETD3 [2]): 30%
Molecule: TLKYPICHGCVTNWDD (also: sidechain bridge or staple (positions not given here)) [compound 2, stapled bis-thiol alkylated βA peptide]

SETD3-catalyzed methylation after 3 h (human SETD3 [2]): 41%
Molecule: TLKYPIEHG[Orn]VTNWDD (also: sidechain bridge or staple (positions not given here)) [compound 7, i, i + 3 lactam-bridged βA peptide (Glu72-Orn75)]

SETD3-catalyzed methylation after 3 h (human SETD3 [2]): 14%
Molecule: TLKYPILys(N3)HGPraVTNWDD (sidechain bridge or staple) [compound 11, triazole-stapled βA peptide from azide-alkyne cycloaddition of 10]

SETD3-catalyzed methylation after 3 h (human SETD3 [2]): 35%
Molecule: TLKYPICHGCVTNWDD (also: sidechain bridge or staple (positions not given here)) [compound 3, stapled bis-thiol alkylated βA peptide]

Molecule: TLKYPILys(N3)HGPraVTNWDD [compound 10, linear click-control with azido-lysine and propargylglycine]
Km (human SETD3 [1]): 77.8 ± 14 µM | kcat (human SETD3 [1]): 1.72 ± 0.15 s⁻¹ | kcat/Km (human SETD3 [1]): 22000 M⁻¹ s⁻¹ | SETD3-catalyzed methylation after 3 h (in words) (human SETD3 [2]): full conversion

SETD3-catalyzed methylation after 3 h (in words) (human SETD3 [2]): inert to methylation
Molecule: TLKYPICHGCVTNWDD (also: sidechain bridge or staple (positions not given here)) [compound 4, βA peptide stapled with hexafluorobenzene]

B1: human SETD3 (Homo sapiens) (protein)
chain: MGKKSRVKTQKSGTGATATVSPKEILNLTSELLQKCSSPAPGPGKEWEEYVQIRTLVEKIRKKQKGLSVTFDGKREDYFPDLMKWASENGASVEGFEMVNFKEEGFGLRATRDIKAEELFLWVPRKLLMTVESAKNSVLGPLYSQDRILQAMGNIALAFHLLCERASPNSFWQPYIQTLPSEYDTPLYFEEDEVRYLQSTQAIHDVFSQYKNTARQYAYFYKVIQTHPHANKLPLKDSFTYEDYRWAVSSVMTRQNQIPTEDGSRVTLALIPLWDMCNHTNGLITTGYNLEDDRCECVALQDFRAGEQIYIFYGTRSNAEFVIHSGFFFDNNSHDRVKIKLGVSKSDRLYAMKAEVLARAGIPTSSVFALHFTEPPISAQLLAFLRVFCMTEEELKEHLLGDSAIDRIFTLGNSEFPVSWDNEVKLWTFLEDRASLLLKTYKTTIEEDKSVLKNHDLSVRAKMAIKLRLGEKEILEKAVKSAAVNREYYRQQMEEKAPLPKYEESNLGLLESSVGDSRLPLVLRNLEEEAGVQDALNIREAISKAKATENGLVNGENSIPNGTRSENESLNQESKRAVEDAKGSSSDSTAGVKE
notes: His6 (N); made in house; host or cells: E. coli BL21(DE3)
Km [5]: 25.6 ± 4.9 µM | kcat [5]: 2.47 ± 0.145 s⁻¹ | kcat/Km [5]: 96300 M⁻¹ s⁻¹
